Tested on: weaned pigs
Experiment: Preclinical study of the effects of azaperone administered via drinking water: therapeutic usage of antibiotics
Type: in vivo
Conditions: for number of pigs treated (therapeutic use of antibiotics): 6 mg azaperone per liter drinking water for first 3 days
Description: The study was performed in weaned pigs to investigate the effect of azaperone that was continuously orally administered via drinking water on postweaning diarrhoea and associated usage of antibiotics, behaviour, feed conversion, growth and homogeneity of growth. Groups of approximately 250 pigs were enrolled in the study starting from the moment they were weaned. The pigs were housed according to everyday farming conditions in a conventional pig farm. All pigs were housed in similar buildings. Each group was housed in 2 compartments, gilts and barrows were housed in separate compartments. Pigs were kept in pens of approximately 12 individuals each. After weaning, the piglets were housed in continuous artificial light for the first 48 hours. Afterwards, pigs were housed in continuous darkness for the further duration of the study, except during observations (twice a day). During the course of the study, pigs were not vaccinated. A metaphylactic colistine treatment via drinking water was applied in each group starting from the fifth day after weaning. Treatment continued for seven days. Pigs were fed ad libitum. Troughs were filled automatically with a computerized system that records the supplied weight of feed per pen. During the first ten days of the nursery period, pigs were fed a pelleted weaner feed which had also been available to the piglets in the farrowing unit. Between the 10th and 15th day at the nursery, the weaner feed was gradually replaced by grower pellets which have been given until the 35th day. Finally a switch was made between the 35th and the 40th day from grower pellets to starter pellets. Tap water was available during the whole period of the study and was supplied via a water nipple in the feeding trough. The drinking water comprising azaperone was obtained by diluting Stresnil™ injection in water to obtain a concentration of 6 mg azaperone per liter drinking water. A primary dilution was prepared by diluting 90 ml of Stresnil™ 4% injectable solution with tap water to obtain 6 liters of preparation. This primary dilution was linked for 24 hours with an automatic dosing system which continuously diluted the preparation in the drinking water at a rate of 1 to 100. One preparation of the primary dilution was sufficient to treat 600 liters of drinking water which exceeded the anticipated daily consumed volume of water by the pigs in one compartment. The two following days, a new primary dilution was made fresh each morning and linked to the automatic dosing system for 24 hours. This study was a controlled parallel study with 4 sequential groups of approximately 250 weaned pigs each. The first and third group were treated with azaperone via the drinking water for 3 consecutive days. The second and fourth group were control groups treated with placebo (plain drinking water). [table] On day one of the test period, water containing 6 mg azaperone per liter or placebo, was made available. Starting from the fourth day, the drinking water no longer contained azaperone. All pigs followed the normal procedures for further fattening. No pigs were brought to the slaughterhouse during the study (3 days dosing and 39 days follow-up). In order to assess the effect of the oral azaperone administration on the onset of postweaning diarrhoea and concomittant therapeutic usage of antibiotics, the occurrence of diarrhoea was followed in groups 1 to 4 and recorded daily by the Principal Investigator. All individual pens were checked by the Principal Investigator and a diarrhoea score was noted as follows: Any use of antibiotics in groups 1 to 4 was recorded the first three weeks after weaning and grouping of the animals. The decision to treat an animal with antibiotics was made by the Principal Investigator according to everyday practice on that farm.

[1] = during the nursery period, azaperone-treated group

SMILES: O=C(CCCN1CCN(c2ccccn2)CC1)c1ccc(F)cc1 [azaperone]
- usage of antibiotics compared to placebo-treated groups (6 mg/liter water during first three days of 42 day test period): significant reduction of the usage of antibiotics
- number of piglets treated with antibiotics (conclusion) (6 mg/liter water during first three days of 42 day test period, vs. 29 in placebo): 11
- number of individual antibiotic treatments (conclusion) (6 mg/liter water during first three days of 42 day test period, vs. 33 in placebo): 13
- number of ampicilline injections [1]: 1
- number of enrofloxacine injections [1]: 4
- number of oxytetracycline injections [1]: 2
- number of piglets treated with antibiotics for curative reasons [1]: 7 piglets
- total number of individual injections with antibiotics [1]: 7 injections
- number of pigs treated (therapeutic use of antibiotics) (week 1 after weaning): 4
- number of pigs treated (therapeutic use of antibiotics) (week 2 after weaning): 3
- number of pigs treated (therapeutic use of antibiotics) (week 3 after weaning): 0

Source: patent US9049874B2, “Use of azaperone for reducing antibiotic usage” (Elanco Animal Health Ireland Limited, priority 2008, dated 2015)
